A value given as a limit tells only on which side of the number the result lay.

Chain of Neuropeptide Y receptor type 4 (Homo sapiens) (P50391 whole entry): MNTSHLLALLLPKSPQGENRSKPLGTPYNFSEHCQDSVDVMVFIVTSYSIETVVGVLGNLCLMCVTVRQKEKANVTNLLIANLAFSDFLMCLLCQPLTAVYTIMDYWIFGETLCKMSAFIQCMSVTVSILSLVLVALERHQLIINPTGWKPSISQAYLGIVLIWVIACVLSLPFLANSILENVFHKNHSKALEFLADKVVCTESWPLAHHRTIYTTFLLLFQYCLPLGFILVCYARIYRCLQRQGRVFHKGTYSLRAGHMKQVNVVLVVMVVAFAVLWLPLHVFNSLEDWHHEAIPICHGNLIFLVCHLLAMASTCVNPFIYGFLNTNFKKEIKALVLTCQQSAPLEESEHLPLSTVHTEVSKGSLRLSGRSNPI

For the first assay, the target named is T1, Neuropeptide Y receptor type 2 (Homo sapiens) (UniProt P49146).
T1 sequence (whole entry): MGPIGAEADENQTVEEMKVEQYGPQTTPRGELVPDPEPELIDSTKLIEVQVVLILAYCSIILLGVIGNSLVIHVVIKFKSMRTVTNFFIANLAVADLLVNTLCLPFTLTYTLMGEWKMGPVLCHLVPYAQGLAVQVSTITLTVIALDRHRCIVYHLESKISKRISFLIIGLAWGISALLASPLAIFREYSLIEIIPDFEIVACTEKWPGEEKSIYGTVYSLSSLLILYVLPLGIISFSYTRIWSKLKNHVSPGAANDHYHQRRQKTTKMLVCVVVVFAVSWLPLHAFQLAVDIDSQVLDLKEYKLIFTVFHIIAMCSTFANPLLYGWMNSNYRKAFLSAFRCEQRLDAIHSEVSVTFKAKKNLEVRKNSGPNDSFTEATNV
Briefly: Ability to displace [125I]-peptide YY binding to cloned human Neuropeptide Y receptor type 2 expressed in CHO cells at a concentration of 1 uM. It is filed as cell-based.
Consider `Ic1ccc(CCN2CCC(CCCn3c(COc4ccccc4)nc4c(OCCCN5CCCCC5)cccc43)CC2)cc1`, for which the inhibition – broadly, the share of the control response that was lost under treatment – is less than 50%.

A further assay deals with T2, Neuropeptide Y receptor type 1 (Homo sapiens, UniProt P25929).
T2 sequence (P25929 whole entry): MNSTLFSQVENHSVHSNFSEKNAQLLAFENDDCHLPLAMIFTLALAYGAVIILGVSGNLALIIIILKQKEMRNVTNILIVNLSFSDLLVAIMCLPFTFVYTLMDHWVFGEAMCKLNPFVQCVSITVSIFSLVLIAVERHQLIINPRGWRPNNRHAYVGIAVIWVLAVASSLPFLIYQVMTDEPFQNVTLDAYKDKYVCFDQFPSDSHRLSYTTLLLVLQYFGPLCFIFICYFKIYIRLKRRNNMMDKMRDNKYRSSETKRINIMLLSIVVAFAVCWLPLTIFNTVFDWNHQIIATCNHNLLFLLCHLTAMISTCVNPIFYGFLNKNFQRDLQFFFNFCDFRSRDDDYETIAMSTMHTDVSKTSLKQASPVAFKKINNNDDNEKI
In words: Ability to displace [125I]-peptide YY binding to cloned human Neuropeptide Y receptor type 1 expressed in AV-12 cells. The format is cell-based, AV12.
For `O=C(CCCN1CCC(CCCn2c(COc3ccccc3)nc3c(OCCCN4CCCCC4)cccc32)CC1)c1ccccc1`, the affinity corresponds to a Ki of 132 pM. Same read-out and setting: with `Ic1ccc(CCN2CCC(CCCn3c(COc4ccccc4)nc4c(OCCCN5CCCCC5)cccc43)CC2)cc1` the figure was 52 pM; with `c1ccc(OCc2nc3c(OCCCN4CCCCC4)cccc3n2CCCC2CCN(CCCN3CCCCC3)CC2)cc1`, 106 pM; with `c1ccc(OCc2nc3c(OCCCN4CCCCC4)cccc3n2CCCC2CCN(CCC3CCCCC3)CC2)cc1`, 285 pM. Regarding `C=CCN1CCC(CCCn2c(COc3ccccc3)nc3c(OCCCN4CCCCC4)cccc32)CC1`, the Ki (usually a dissociation constant, usually derived from enzyme kinetics or from competition with a known ligand) was found to be 1630 pM. Compound `CC(C)CN1CCC(CCCn2c(COc3ccccc3)nc3c(OCCCN4CCCCC4)cccc32)CC1` had a Ki of 829 pM. Compound `CC(C)CCN1CCC(CCCn2c(COc3ccccc3)nc3c(OCCCN4CCCCC4)cccc32)CC1` came in with a Ki of 290 pM. Same read-out and setting: the value for `c1ccc(CCCN2CCC(CCCn3c(COc4ccccc4)nc4c(OCCCN5CCCCC5)cccc43)CC2)cc1` was 361 pM. In turn, `c1ccc(OCc2nc3c(OCCCN4CCCCC4)cccc3n2CCCC2CCNCC2)cc1` displayed a Ki of 4500 pM. On to `CN1CCC(CCCn2c(COc3ccccc3)nc3c(OCCCN4CCCCC4)cccc32)CC1`, for which the Ki is 1620 pM. In the case of `O=C(CCN1CCC(CCCn2c(COc3ccccc3)nc3c(OCCCN4CCCCC4)cccc32)CC1)c1ccccc1`, the Ki was determined as 112 pM. Regarding `CC(C)N1CCC(CCCn2c(COc3ccccc3)nc3c(OCCCN4CCCCC4)cccc32)CC1`, the affinity corresponds to a Ki of 1610 pM. For the compound `C=CCCN1CCC(CCCn2c(COc3ccccc3)nc3c(OCCCN4CCCCC4)cccc32)CC1`, the affinity, expressed as Ki, was 707 pM. Against the preceding compound, the Ki is about 2.3-fold lower. `c1ccc(OCc2nc3c(OCCCN4CCCCC4)cccc3n2CCCC2CCN(CC3CCCCC3)CC2)cc1` registered a Ki of 393 pM. `Oc1ccc(CCN2CCC(CCCn3c(COc4ccccc4)nc4c(OCCCN5CCCCC5)cccc43)CC2)cc1` gave a Ki of 313 pM. The Ki values of the last two compounds are within 1.5-fold of each other. The same measure, in the same setting: with `c1ccc(CCN2CCC(CCCn3c(COc4ccccc4)nc4c(OCCCN5CCCCC5)cccc43)CC2)cc1` the figure was 191 pM; with `O=C(CN1CCC(N2CCCCC2)CC1)c1c(COc2ccc(Cl)cc2)n(CCCC2CCCNC2)c2ccccc12` (stereo not given), 750 pM; with `C(=C/c1ccccc1)/CN1CCC(CCCn2c(COc3ccccc3)nc3c(OCCCN4CCCCC4)cccc32)CC1`, 183 pM.

In another assay the target is T3, Neuropeptide Y receptor type 5 (Homo sapiens) (UniProt Q15761).
T3 sequence (whole entry): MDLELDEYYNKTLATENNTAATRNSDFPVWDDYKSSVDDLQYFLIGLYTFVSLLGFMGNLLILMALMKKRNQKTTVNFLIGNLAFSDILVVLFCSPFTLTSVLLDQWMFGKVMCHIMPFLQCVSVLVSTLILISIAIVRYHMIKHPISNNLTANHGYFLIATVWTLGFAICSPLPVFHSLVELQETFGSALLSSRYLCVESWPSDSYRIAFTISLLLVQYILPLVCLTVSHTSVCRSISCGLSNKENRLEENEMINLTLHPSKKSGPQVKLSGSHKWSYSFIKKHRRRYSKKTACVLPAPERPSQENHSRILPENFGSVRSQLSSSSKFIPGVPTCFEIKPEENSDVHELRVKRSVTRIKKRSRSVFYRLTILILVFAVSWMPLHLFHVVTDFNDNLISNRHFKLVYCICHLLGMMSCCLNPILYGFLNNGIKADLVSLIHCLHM
Briefly: Ability to displace [125I]-peptide YY binding to cloned human Neuropeptide Y receptor type 5 expressed in CHO cells at a concentration of 1 uM. It is filed as cell-based.
As to `Ic1ccc(CCN2CCC(CCCn3c(COc4ccccc4)nc4c(OCCCN5CCCCC5)cccc43)CC2)cc1`, the inhibition is less than 50%.

A further assay concerns the target Neuropeptide Y receptor type 4 (Homo sapiens) (UniProt P50391). Briefly: Ability to displace [125I]-peptide YY binding to cloned human Neuropeptide Y receptor type 4 expressed in CHO cells at a concentration of 1 uM. It is filed as cell-based.
The compound `Ic1ccc(CCN2CCC(CCCn3c(COc4ccccc4)nc4c(OCCCN5CCCCC5)cccc43)CC2)cc1` registered an inhibition of less than 50%.

In the next assay the test system is SK-N-MC. In words: Ability to antagonize 1 nM NPY''s inhibition of forskolin-stimulated cyclic AMP accumulation in SK-N-MC cells. It is filed as functional, cell-based, Homo sapiens.
On to `Ic1ccc(CCN2CCC(CCCn3c(COc4ccccc4)nc4c(OCCCN5CCCCC5)cccc43)CC2)cc1`, for which affinity was put at a Ki of 6000 pM. `c1ccc(OCc2nc3c(OCCCN4CCCCC4)cccc3n2CCCC2CCN(CCCN3CCCCC3)CC2)cc1` registered a Ki of 564 pM. Compared with the last compound, the Ki is about 11-fold lower.

Compound `c1ccc(OCc2nc3c(OCCCN4CCCCC4)cccc3n2CCCC2CCN(CCC3CCCCC3)CC2)cc1` showed a Ki of 5200 pM. On the same count and under the same terms, with `c1ccc(CCCN2CCC(CCCn3c(COc4ccccc4)nc4c(OCCCN5CCCCC5)cccc43)CC2)cc1` the figure was 3400 pM.

These data come from ChEMBL document CHEMBL1131957, “Structure-activity relationship of a series of diaminoalkyl substituted benzimidazole as neuropeptide Y Y1 receptor antagonists” (Bioorg Med Chem Lett, 1999).
